Results: patent publication US20030044909A1, “Melatonin-receptor expression cells and thier uses” (JCR PHARMACEUTICALS Co., Ltd., priority 1997, published 2003)

Each molecule was assayed against mel-1a receptor expressed in CHO cell (Homo sapiens, UniProt P48039). Details: after 2 min stimulation; mel-1a/CHO cells.
mel-1a receptor expressed in CHO cell, sequence (P48039 whole entry): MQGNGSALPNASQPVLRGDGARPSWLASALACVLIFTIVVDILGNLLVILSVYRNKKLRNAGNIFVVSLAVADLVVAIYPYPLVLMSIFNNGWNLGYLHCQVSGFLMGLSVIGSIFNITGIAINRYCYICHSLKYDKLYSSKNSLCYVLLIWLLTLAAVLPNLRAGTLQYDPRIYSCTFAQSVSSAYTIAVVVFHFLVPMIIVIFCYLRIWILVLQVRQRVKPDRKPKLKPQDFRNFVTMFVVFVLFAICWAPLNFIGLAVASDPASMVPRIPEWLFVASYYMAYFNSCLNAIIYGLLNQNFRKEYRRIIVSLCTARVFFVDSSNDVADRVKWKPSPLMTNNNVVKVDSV
Experimental: mel-1a/CHO cells were cultivated in advance in the DMEM medium containing 800 μg/ml G418 and 10% FBS, and mel-1a/CHO cells in the logarithmic growth phase were washed with PBS, treated with trypsin and diluted with the same medium to a concentration of 2.5×10^5/ml. 1 ml of cell suspension was seeded in each cell cup for cytosensor, and the cell cups were filled on the outside with 2 ml of the medium and then left on standing overnight udner th conditions of 5% CO2/37° C.
While paying attention not to cause air bubbles to mingle, a spacer was disposed on the bottom of each cell cup with use of sterile tweezers on the following day. When air bubbles were below the spacer, they were to be removed with a pipette. A capsule insert was placed in each cup, while preventing air bubbles from mingling, and the medium in the 1 ml portion was added from the top to thereby bury the cup in the medium, whereby it was to be ascertained that no air bubble had been drained or mingled into the spacer and insert.
Powdered low buffer RPM1 1640 medium (MDC) was dissolved in 1 liter of distilled water for tissue culture (Cosmo Bio), and the solution was adjusted to pH 7.4 and then suction-filtered through a 0.45 μm filter.
The Cyto software package of a personal computer was started up. A measuring medium was set in a ctyosensor, and fluid feeding system was switched for the measuring medium. The fluid inside the sensor chamber was aspirated out, and the measuring medium was placed in the 1.5 ml portion in to each cell, where a capsule cell prepared in advance was disposed while preventing air bubbles from mingling. The sensor chamber was connected to a cytosensor without causing air bubbles to mingle.
Each of the prepared samples was set on the cytosensor under the conditions where the metabolic rate was stabilized. Measurement with the cytosensor was performed by switching the fluid feeding from the measuring medium to the sample solution to stimulate the cells, then putting the fluid-feeding back to the measuring medium and measuring a change caused in metabolic rate of the cells, whereby stimulation with the sample was effected for 2 min. and subsequently the measuring medium continued to be fluid-fed until the metabolic rate was returned to the level determined prior to stimulation with the sample. […] Accordingly, stimulation with the sample was given at a regular interval of 40 min.
The cytosensor was designed to detect the release outside the cell of hydrogen ions, which is understood to reflect the metabolic activity of the cell, as a rate of change in extracellular hydrogen ion concentration. Upon binding of a ligand to the receptor expressed on the cell surface, intracellular signal transduction takes place, resulting in increased cellular metabolic activity to thereby release hydrogen ions outside the cell.
In the case of `COc1ccc2[nH]cc(CCNC(C)=O)c2c1` [melatonin], the “time for the metabolic activity to decline to the level prior to stimulation” value is reported as “about 40 min”.

Same assay, conditions: mel-1a/CHO cells, cytosensor (FIG. 11)
With `COc1ccc2[nH]cc(CCN)c2c1` [5-methoxytryptamine] the “increase in metabolic rate via the mel-1a receptor (responsiveness, specificity)” value (“increase” for short) was “not to bring about an increase in metabolic rate”. In the case of `COc1ccc2[nH]cc(C[C@H](N)C(=O)O)c2c1` [5-methoxytryptophan], the “increase” value is reported as “not to bring about an increase in metabolic rate”. With `CC(=O)NCCc1c[nH]c2ccc(O)cc12` [N-acetylserotonin] the “increase” value was “not to bring about an increase in metabolic rate”. `COc1ccc2[nH]cc(CCNC(C)=O)c2c1` [melatonin] was tested, and the “increase” value was “responds specifically to melatonin alone”. `NCCc1c[nH]c2ccc(O)cc12` [serotonin] was tested, and the “increase” value was “not to bring about an increase in metabolic rate”. In the case of `N[C@@H](Cc1c[nH]c2ccccc12)C(=O)O` [tryptophan], the “increase” value is reported as “not to bring about an increase in metabolic rate”.
